# In the SangsterLogP compilation:
row,SMILES,logP
1,COc1ccc2c(c1)N(CCCN(C)C)c1ccccc1S2,4.9
2,C[C@@H]1C[C@H]2[C@@H]3CCC4=CC(=O)C=C[C@]4(C)[C@@]3(F)[C@@H](O)C[C@]2(C)[C@@]1(O)C(=O)CO,1.83
3,Cn1cccc1,1.21
4,O=C(O)c1ccccc1Nc1cccc(C(F)(F)F)c1,5.25
5,CC(=O)c1ccc(OCC(=O)O)cc1,0.87
6,O=[N+]([O-])c1ccc(Br)cc1,2.55
7,O=C(O)COc1cccc(Br)c1,2.22
8,NC(=O)Cc1ccccn1,-0.65
9,CCOC(C)=O,0.73
10,Clc1cccc(Cl)c1,3.53
11,Nc1nc(N)c2ncn([C@H]3C[C@H](O)[C@@H](CO)O3)c2n1,-0.52
12,NC(=O)/C=C/c1ccccc1,1.43
13,Cc1ccc(Cl)cc1,3.33
14,CC(C)=O,-0.24
15,CCOc1ccc(O)cc1,1.81
16,C=CCNCC=C,1.11
17,CC(=O)Oc1cccc(O)c1,1.23
18,CC(=O)c1ccccc1O,1.92
19,Nc1nc2c(ncn2[C@H]2C[C@H](O)[C@@H](CO)O2)c(=O)[nH]1,-1.3
20,C[C@H](CS)C(=O)N1CCC[C@H]1C(=O)O,0.34
21,Cc1ccc(C(C)C)cc1,4.1
22,CCOc1ccc([N+](=O)[O-])cc1,2.53
23,CCCC(C)C1(CC)C(=O)NC(=S)NC1=O (configuration not stated),2.85
24,Brc1cnc2ccccc2c1,3.03
25,CN1CCC(=C2c3ccccc3C=Cc3ccccc32)CC1,4.69
26,COC(=O)C(C#N)=NNc1cccc(C(F)(F)F)c1,3.78

row,SMILES,logP
1,Cc1ccc(C)c2ccccc12,4.37
2,Nc1ccc2cc3ccc(N)cc3nc2c1,1.83
3,CC(C)NC(=O)C=Cc1ccc([N+](=O)[O-])o1,1.34
4,Cc1cn([C@H]2C[C@H](F)[C@@H](CO)O2)c(=O)[nH]c1=O,-0.28
5,NCCCCc1ccccc1,2.4
6,CC(=O)S[C@@H]1CC2=CC(=O)CC[C@]2(C)[C@H]2CC[C@@]3(C)[C@@H](CC[C@@]34CCC(=O)O4)[C@H]12,2.78
7,Cc1ccccc1O,1.95
8,Clc1ccccn1,1.22
9,CCCCC(CC)CN (configuration not stated),2.82
10,OCCBr,0.23
11,Cc1ccc2cc(C)c(C)cc2c1,4.73
12,CCBr,1.61
13,COc1ccccc1O,1.32
14,CNC(=O)Oc1cccc(C#N)c1,0.97
15,O=C(O)c1cc([N+](=O)[O-])ccc1O,2.34
16,CN1C(=O)CC(=O)N(c2ccccc2)c2cc(Cl)ccc21,2.12
17,Oc1ccc(O)cc1,0.59
18,CCc1ccc(O)cc1,2.58
19,CCN(CC)CCOC(=O)c1ccc(N)cc1,2.14
20,O=[N+]([O-])c1cc[n+]([O-])c2c(F)cccc12,1
21,CCCCOc1ccc(CC(=O)NO)cc1,2.08
22,CC[C@H](C)[C@H](N)C(=O)O,-1.7
23,O=C1CC(=O)NC(=O)N1,-1.47
24,OC[C@H]1O[C@@H](n2cnc3c(O)ncnc32)[C@H](O)[C@@H]1O,-2.1
25,Cc1ccccc1C,3.12
26,COc1cc(C(=O)NN)ccn1,-0.1

row,SMILES,logP
1,Nc1ccc(C(=O)NCC(=O)O)cc1,-0.89
2,c1ccc(-c2ccncc2)cc1,2.59
3,Cc1ccc2cccc(C)c2c1,4.44
4,Cc1cn([C@H]2C[C@H](O)[C@@H](CO)O2)c(=O)[nH]c1=S,-0.07
5,Nc1ccc(C(=O)O)cc1Br,1.4
6,c1ccc(Nc2ccccc2)cc1,3.5
7,Nc1ncnc2c1ncn2[C@H]1CC[C@@H](CO)O1,-0.25
8,CC(=O)Nc1ccccc1C(=O)O,1.88
9,NS(=O)(=O)c1cccc([N+](=O)[O-])c1,0.55
10,O=C(O)Cc1ccc(I)cc1,2.64
11,O=C(O)c1cccc(F)c1,2.15
12,OCc1ccc(O)cc1,0.25
13,OCCCCc1ccccc1,2.35
14,CCN1CCCC1CNC(=O)c1cc(S(=O)(=O)CC)ccc1OC (configuration not stated),1.06
15,CCOc1ccc(OC(=O)NC)cc1,1.63
16,OCCCc1ccccc1,1.88
17,CC(C)n1nnc2ccccc21,1.98
18,C=CCC1(CC)C(=O)NC(=O)NC1=O,0.95
19,CCCCc1ccccc1,4.38
20,O=c1[nH]cc(F)c(=O)[nH]1,-0.89
21,FCF,0.2
22,CC(C)(C)CO,1.31
23,Nc1nc(O)c2ncn([C@H]3CC[C@@H](CO)O3)c2n1,-1.01
24,Cc1ccc(OCC(=O)O)cc1,1.86
25,COc1ccc(CC(C)N)c(OC)c1 (configuration not stated),1.75
26,NC(=O)C(c1ccccc1)c1ccccn1 (configuration not stated),0.83

row,SMILES,logP
1,O=C(O)c1cccc(Br)c1,2.87
2,O=C(O)c1ccc(F)cc1,2.07
3,Cc1c(C)c(C)c(C)c(C)c1C,5.11
4,c1ccc2[nH]nnc2c1,1.44
5,Fc1ccccc1F,2.37
6,Nc1cccc(Cl)c1,1.88
7,c1cn[nH]c1,0.26
8,COC(=O)C(C#N)=NNc1cc(Cl)c(Cl)cc1Cl,5.15
9,O=C(O)Cc1ccc([N+](=O)[O-])cc1,1.39
10,CCOC(=O)C1(c2ccccc2)CCN(C)CC1,2.72
11,Oc1ccc(-c2ccccc2)cc1,3.2
12,CC(=O)C(C#N)=NNc1cc(C(F)(F)F)ccc1Cl,5.08
13,O=C(O)Cc1cccc(I)c1,2.62
14,Clc1ccccc1-c1ccccc1,4.53
15,Oc1ccccn1,-0.58
16,COC(=O)C(C#N)=NNc1ccc(Cl)cc1C(F)(F)F,4.66
17,C=C1C(=O)OC2CC(C)C3C=CC(=O)C3(C)C(O)C12 (configuration not stated),0.87
18,Cc1ccc2c([N+](=O)[O-])cc[n+]([O-])c2c1,1.42
19,O=C(O)c1cccc(O)c1,1.5
20,CC(C)(C)COC(N)=O,0.94
21,Cc1cn([C@H]2C[C@H](O)[C@@H](CO)O2)c(=O)[nH]c1=O,-0.93
22,Cc1cnc(NC(=O)C2=C(O)c3ccccc3S(=O)(=O)N2C)s1,3.43
23,O=CO,-0.54
24,CN(c1ccccc1)c1ccccc1,3.9
25,Cc1cccc(O)c1,1.96
26,OCC=Cc1ccccc1,1.95

row,SMILES,logP
1,CCC#N,0.16
2,CC(=O)Nc1ccc(Cl)cc1,2.09
3,CCC(C)=O,0.29
4,Oc1c(Br)cc(Br)cc1Br,4.13
5,Cc1ccc(CC(=O)O)cc1,1.86
6,COC(=O)C(C#N)=NNc1c(Cl)cc(C(F)(F)F)cc1Cl,4.36
7,Nc1ccccc1C(=O)O,1.21
8,CC(=O)C(C#N)=NNc1ccc(Cl)cc1,4.1
9,Nc1ccn([C@H]2C[C@H](F)[C@@H](CO)O2)c(=O)n1,-0.89
10,CCCCN(CCCC)N=O,2.63
11,Nc1cccnc1,0.11
12,O=C(O)Cc1ccc(O)cc1,0.75
13,COc1ccc2[nH]ccc2c1,2.06
14,O=C(O)COc1ccc(F)cc1,1.64
15,CNC(C)Cc1ccccc1 (configuration not stated),2.07
16,c1ccc2c(c1)CCC2,3.18
17,CCc1ccccc1OCC(=O)O,2.53
18,CO,-0.77
19,CCCC(C)=O,0.91
20,CC(N)C(O)c1cccc(O)c1 (configuration not stated),-0.27
21,CNC(=O)Oc1ccc2c(c1)[C@]1(C)CCN(C)[C@@H]1N2C,1.58
22,CF,0.51
23,CCOC(=O)c1ccccn1,0.87
